Where two headings read alike, the source gives them in different places.
Columns and labels:
[1] = tested on: PC-3 cells; assay: Cell cycle analysis (PI staining, flow cytometry); assay type: cell-based, human; conditions: PC-3, 48 h
Procedure: The cultured cells were treated with these compounds at the indicated concentrations for 48 h, then harvested, and analyzed by flow cytometry. […] Each experiment was performed in triplicate.
The cell cycle arrest on PC-3 and HepG2 cells was detected with PI staining assay (Sigma) as described previously[19]. After treatment with samples at the set concentrations for 48 h, cells were centrifuged and fixed in 70% ethanol at 4 °C refrigerator 12 h and then resuspended in PBS (100 μL RNase A and 400 μL PI). Cellular DNA content was measured using a FACSCalibur flow cytometer with Modfit LT 3.0 software. Twenty thousand cells were collected per sample. Mean values are presented from three independent experiments.

[2] = tested on: CHO (Chinese hamster ovary); assay: SRB cytotoxicity assay, CHO normal cells; assay type: cell-based; conditions: Cricetulus griseus, 72 h, normal cell line
Source text: (§1) All the synthesized derivatives of 1 and 2 were screened for their anticancer activities against four human cancer cell lines (HeLa, PC-3, HEp-2 and HepG2) and two normal cell lines (CHO and HUVEC) using the sulforhodamine B (SRB) assay.
(§2) PC-3 (human prostate cancer), HepG2 (human liver cancer) and CHO (Chinese hamster ovary) cell lines were obtained from Shanghai Institute of Biochemistry and Cell Biology, Chinese Academy of Sciences. HeLa (human cervix cancer), HUVEC (human umbilical vein endothelial cells) and HEp-2 (human laryngeal cancer) cell lines were granted by Prof. Lei of college of life sciences, Northwest A&F University. The six cell lines were grown in RPMI-1640 (Gibco) containing 10% (v/v) thermally inactivated fetal bovine serum (FBS), penicillin (100 KU/L) and streptomycin (100 KU/L) at 37 °C in a 5% CO2 humidified incubator.
(§3) In vitro cytotoxicity was assessed by using the SRB colorimetric assay refer to previous methods[19],[42].

[3] = tested on: HeLa (human cervix cancer); assay: SRB cytotoxicity assay, HeLa; assay type: cell-based; conditions: 72 h, mean ± SD
[4] = tested on: HEp-2 (human larynx epidermal cancer); assay: SRB cytotoxicity assay, HEp-2; assay type: cell-based; conditions: 72 h, mean ± SD
Source text: as §1, §2, §3

[5] = tested on: canonical p50/p65 NF-κB signaling in PC-3 cells; assay: NF-κB luciferase reporter assay, TNF-α-induced; assay type: cell-based, human; conditions: 10 μM, 8 h, TNF-α 50 ng/mL
Source text: The canonical NF-κB signaling pathway is a target for developing therapeutics for multiple human diseases, including cancer and chronic inflammatory diseases[46],[47]. Many STLs are known modulators of NF-κB signaling[7],[48]. In particular, two famous STLs parthenolide and helenalin have been certified to covalently target Cys38 of NF-κB p65 through hetero-Michael addition between exocyclic methylene butyrolactones and biological thiol of Cys38[49],[50]. […] To test the inhibition of active compound in NF-κB signaling, 1i and parthenolide (P, positive control) were screened for inhibitory activity toward canonical p50/p65 NF-κB signaling with a cellular luciferase assay (Fig. 12)[51]. […] The observation that 1i and P are comparably potent in this assay hints at the possibility that 1i may also have similar properties like 1β-hydroxy alantolactone and parthenolide in cells.
Figure 12 NF-κB-luciferase inhibition assay in PC-3 cells. PC-3 cells with a stably transfected NF-κB luciferase reporter were stimulated with TNF-α (50 ng/mL) (except for noninduced control, Non-Ind) and different dose of parthenolide (P) and 1i for 8 h. Normalized luminescence was plotted as NF-κB luciferase activity compared to control (%).
PC-3 cells (8000 cells/well) were placed in a 96-well plate and the cells were then transfected with pNF-κB-Luc expression plasmid reference to the method.

[6] = tested on: PC-3 (human prostate cancer); assay: SRB cytotoxicity assay, PC-3; assay type: cell-based; conditions: 72 h, mean ± SD, read-out: IC50 PC-3
[7] = tested on: cancer cells; parameters: method as in PMID 24763364, PMID 27262408; conditions: ref [19],[33]; cited from earlier work
[8] = tested on: HeLa (human cervix cancer); parameters: method as in Dong et al.[19]; conditions: footnote c; ref Dong et al.[19]; cited from earlier work
[9] = tested on: PC-3 cells; assay: Hoechst 33258 nuclear chromatin condensation, PC-3; assay type: cell-based, human; conditions: PC-3, 72 h; VP-16 0.5 and 1 μM; 1i 1, 2 and 4 μM
Procedure: Figure 10 Induction of apoptosis by active compound 1i and VP-16 at the indicated concentrations on PC-3 cells. (a) 72 h after the treatment of these compounds at the indicated concentrations, cells were fixed, washed with PBS, stained with Hoechst 33258, and analyzed for morphological characteristics associated with apoptosis by fluorescence microscopic analysis (×20). (b) Compound 1i triggered changes of pro-caspase 3 and PARP by Western blotting analysis. Cells were lysed after 72 h treatment with 1i at the concentration (1, 2 and 4 μM). The lysates were resolved on a 10% SDS-PAGE, transferred on to a nitrocellulose membrane and probed for cleaved caspase 3 and PARP. β-actin was used as a loading control.
Condensation of nuclear chromatin is usually the late apoptotic event and is detected by staining Hoechst 33258[43]. PC-3 cells containing 2.0 × 10^5 cells/well were cultured on coverslips, and kept in six-well plates for 12 h. After 72 h treatment with 1i and VP-16, Hoechst 33258 staining was carried out according to the kit’s procedure (Beyotime Institute Biotechnology, China). The cells were viewed under a fluorescence microscopy (Olympus BX53 + DP72) with a ×20 objective lens.

[10] = tested on: HepG2 (human liver cancer); assay: SRB cytotoxicity assay, HepG2; assay type: cell-based; conditions: 72 h, mean ± SD, read-out: IC50 HepG2
[11] = tested on: HUVEC (human umbilical vein endothelial cell); assay: SRB cytotoxicity assay, HUVEC normal cells; assay type: cell-based; conditions: Homo sapiens, HUVEC; 72 h, SRB, normal cell line
[12] = tested on: HEp-2 (human larynx epidermal cancer); conditions: footnote c; ref Dong et al.[19]; cited from earlier work
[13] = tested on: CHO (Chinese hamster ovary); conditions: footnote c; ref Dong et al.[19]; cited from earlier work

SMILES	%G0/G1 ([1]; 4.0 μM)	%G2/M ([1]; 4.0 μM)	%S ([1]; 4.0 μM)	IC50 [2]	IC50 [3]	IC50 [4]	NF-κB luciferase activity compared to control [5]	IC50 [6]	fold stronger suppression against cancer cells compared with ABL [7]	%G0/G1 ([1]; 1.0 μM)	%G2/M ([1]; 1.0 μM)	%S ([1]; 1.0 μM)	IC50 [8]	nuclear morphology (Hoechst 33258), apoptosis [9]	IC50 [10]	IC50 [11]	IC50 [12]	IC50 [13]
C=C1C(=O)O[C@H]2[C@H]1CC/C(C)=C/CC[C@@]1(C)O[C@@H]21 [P, parthenolide, reference compound]	46.2%	18.2%	35.6%	5.3 ± 0.7 µM	7.6 ± 0.6 µM	6.8 ± 0.3 µM	52.1%	3.4 ± 0.6 µM										
C=C1C(=O)OC2CC(C)=C(C(C)CCCOC(C)=O)C(OC(=O)CCCCCCCCCCC)C12 (stereo not shown) [ABL-L, 1-O-acetyl-6-O-lauroylbritannilactone]									4–10 fold									
COc1cc([C@@H]2c3cc4c(cc3[C@@H](O[C@@H]3O[C@@H]5CO[C@@H](C)O[C@H]5[C@H](O)[C@H]3O)[C@H]3COC(=O)[C@H]23)OCO4)cc(OC)c1O [VP-16, etoposide, reference compound]								0.6 ± 0.1 µM		28.1%	42.4%	29.5%	3 ± 0.3 µM	fragmentation and condensation of chromatin	7.6 ± 0.8 µM	1.9 ± 0.2 µM	4.8 ± 0.5 µM	2.6 ± 0.2 µM

Source: PMC5789092 (Scientific Reports, 2018)
